These results are taken from patent US20080103189A1, “PREPARATION AND UTILITY OF SUBSTITUTED INDOLES” (Auspex Pharmaceuticals, Inc., priority 2006, published 2008).

The conditions of this series: topical or ocular, 5 microgram per mL. The procedure:
Liver microsomal stability assays were conducted at 1 mg per mL liver microsome protein with an NADPH-generating system in 2% NaHCO3 (2.2 mM NADPH, 25.6 mM glucose 6-phosphate, 6 units per mL glucose 6-phosphate dehydrogenase and 3.3 mM MgCl2). Test compounds were prepared as solutions in 20% acetonitrile-water and added to the assay mixture (final assay concentration 5 microgram per mL) and incubated at 37° C. Final concentration of acetonitrile in the assay were <1%. Aliquots (50 μL) were taken out at times 0, 15, 30, 45, and 60 minutes, and diluted with ice cold acetonitrile (200 μL) to stop the reactions. Samples were centrifuged at 12000 RPM for 10 minutes to precipitate proteins. Supernatants were transferred to microcentrifuge tubes and stored for LC/MS/MS analysis of the degradation half-life of the test compounds.

The structures appear in SMILES notation.

Take `[2H]C([2H])(Cc1c[nH]c2ccc(CS(=O)(=O)N3CCCC3)cc12)N(C)C`: the “increase in the degradation half-life as compared to the non-isotopically enriched drug” value was 20-250%.
